Assay results reported in US9701677B2, “Fused pyrimidine compounds” (Gilead Sciences, Inc., priority 2014, dated 2017).
Where two headings read alike, the source gives them in different places.

Tests used:
Type in all cases: cell-based
HIV-1 HBX2 (wild type) = test: High throughput cytopathic effect assay in MT-4 cells, wild type HIV-1
Excerpt: (§1) Compounds were screened in a miniaturized, high throughput cytopathic effect assay for activity against HIV-1 HBX2 (wild type) and HIV-1 reverse transcriptase mutants K103N and Y181C. In Tables 1 and 2 below, “w.t.” refers to results of the tested compounds run with the wildtype 1 and “w.t. assay 2” refers results of the tested compounds run with the wildtype on the same day as the testing of the compounds with the mutants. Thus, “w.t. assay 2” was run under the same conditions as the testing of the compounds with the mutants and provides a direct comparison with the results from the testing with the mutants.
(§2) Ten-point serial dilutions of compounds with half-log step size were generated in DMSO. AZT (5 μM) was used as the positive control and DMSO as the negative control. The Echo acoustic dispenser was used to deliver 200 nL of serially diluted compound into sterile 384 well tissue culture assay plates. Two million MT-4 cells were incubated with each of the 3 viruses at MOI of 0.0005 in separate 1 mL infection tubes for 1 hour at 37° C. The cells were diluted in cell culture medium (RPMI+10% FBS) to 50,000 cells/mL. The infected cells were added to 384 well assay plates containing serially dilute compounds. Assay plates were incubated for 5 days in a humidified incubator set at 37° C. and 5% CO2. To measure the cytopathic effect of HIV, 40 μL Cell TiterGlo was added to each well and the resulting luminescence signal is read with the Envision plate reader (Perkin Elmer). Data were normalized to positive and negative controls in each plate and expressed as % CPE Protection. […]

[1] = test system: HIV-1 reverse transcriptase mutant K103N; test: High throughput cytopathic effect assay in MT-4 cells, K103N mutant; conditions: for EC50: Human immunodeficiency virus 1, MT4, 120 h, read-out: MT4 EC50 (nM) against K103N; for FC against mutant K103N: fold change of EC50, K103N versus w.t. assay 2
Excerpt: as §1, §2

[2] = test system: HIV-1 reverse transcriptase mutant Y181C; test: High throughput cytopathic effect assay in MT-4 cells, Y181C mutant; conditions: for EC50: Human immunodeficiency virus 1, MT4, 120 h, read-out: MT4 EC50 (nM) against Y181C; for FC against mutant Y181C: fold change of EC50, Y181C versus w.t. assay 2
Excerpt: as §1, §2

hERG channels = biological target: T1, hERG channels (Homo sapiens, UniProt Q12809); test: hERG assay, whole cell recordings in CHO cell line stably expressing hERG channels; conditions: CHO cells expressing hERG, tail current, Table 3
T1 construct: host or cells: CHO cell line stably expressing hERG
Description: Cells were cultured in DMEM/F12 containing 10% FBS, 1% penicillin/streptomycin and 500 μg/ml G418. Before testing, cells were harvested using Accumax (Innovative Cell Technologies).
Cells were voltage clamped at a holding potential of −80 mV. The hERG current was then activated by a depolarizing step to −50 mV for 300 ms. This first step at −50 mV was used as a baseline for measuring peak amplitude of the tail current. Next, a voltage step to +20 mV was applied for 5 s to activate the channels. Finally, a step back to −50 mV for 5 s removed activation and the deactivating tail current was recorded.
Solutions were mixed by sonication for 20 min, followed by vigorous vortexing. Prior to testing, compounds were diluted to test concentrations in glass vials using External Solution. Dilutions were prepared no longer than 20 min prior to use.
External solution containing 0.1% DMSO (vehicle) was applied to the cells to establish a baseline. […] Test article solutions were added to cells in 4 separate additions. Cells were kept in test solution until effect of the test article reached steady state, to a maximum of 12 min. Next, 1 μM cisapride (positive control) was added. Finally, washout with External Solution was performed until the recovery current reached steady state.

[3] = Human immunodeficiency virus 1, MT4, 120 h, MT-4 cells, HIV-1 wild type, 5 days, CPE protection (Cell TiterGlo), read-out: MT4 EC50 (nM) against w.t.
[4] = Human immunodeficiency virus 1, MT4, read-out: MT4 EC50 (nM) against w.t. assay 2

T1 sequence (Q12809 whole entry): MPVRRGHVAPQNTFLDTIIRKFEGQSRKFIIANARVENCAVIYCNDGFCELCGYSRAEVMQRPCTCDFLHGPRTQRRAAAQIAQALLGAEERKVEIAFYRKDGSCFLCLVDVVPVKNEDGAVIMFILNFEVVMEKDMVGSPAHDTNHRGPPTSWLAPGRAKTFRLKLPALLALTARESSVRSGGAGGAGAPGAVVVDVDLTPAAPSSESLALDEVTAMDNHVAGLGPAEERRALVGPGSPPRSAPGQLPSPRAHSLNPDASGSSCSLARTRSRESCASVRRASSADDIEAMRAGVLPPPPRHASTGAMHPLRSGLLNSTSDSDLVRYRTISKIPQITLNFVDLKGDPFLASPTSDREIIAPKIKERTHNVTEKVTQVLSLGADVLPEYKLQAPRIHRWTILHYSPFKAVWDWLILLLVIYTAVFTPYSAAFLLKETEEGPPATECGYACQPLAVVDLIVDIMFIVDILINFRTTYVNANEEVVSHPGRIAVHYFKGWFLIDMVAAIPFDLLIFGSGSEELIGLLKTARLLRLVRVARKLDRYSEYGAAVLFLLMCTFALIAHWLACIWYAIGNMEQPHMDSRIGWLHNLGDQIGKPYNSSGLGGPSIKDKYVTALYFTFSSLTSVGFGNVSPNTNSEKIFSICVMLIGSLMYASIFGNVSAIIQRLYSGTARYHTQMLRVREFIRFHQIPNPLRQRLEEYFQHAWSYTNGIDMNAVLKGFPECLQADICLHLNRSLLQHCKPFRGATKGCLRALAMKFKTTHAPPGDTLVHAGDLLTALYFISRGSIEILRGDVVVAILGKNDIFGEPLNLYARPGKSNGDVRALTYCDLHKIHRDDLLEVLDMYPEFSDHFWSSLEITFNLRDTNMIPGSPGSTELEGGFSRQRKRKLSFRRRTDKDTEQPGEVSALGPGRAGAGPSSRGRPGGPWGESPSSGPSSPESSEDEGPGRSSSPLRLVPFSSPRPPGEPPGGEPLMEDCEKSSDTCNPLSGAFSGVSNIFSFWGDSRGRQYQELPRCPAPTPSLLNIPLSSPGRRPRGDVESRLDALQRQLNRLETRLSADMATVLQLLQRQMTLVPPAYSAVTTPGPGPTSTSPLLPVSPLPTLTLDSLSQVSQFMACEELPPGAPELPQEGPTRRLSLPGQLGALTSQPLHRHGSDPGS

Compound | EC50 (HIV-1 HBX2 (wild type); [3]) | EC50 (HIV-1 HBX2 (wild type); [4]) | EC50 [1] | FC against mutant K103N [1] | EC50 [2] | FC against mutant Y181C [2] | IC50 (hERG channels)
Cc1cc(/C=C/C#N)cc(C)c1-c1cncc2c(N)nc(Nc3ccc(C#N)cc3)nc12 [Compound 2, (E)-4-((4-Amino-8-(4-(2-cyanovinyl)-2,6-dimethylphenyl)pyrido[4,3-d]pyrimidin-2-yl)amino)benzonitrile] | 6.1 nM | 12.6 nM | 14.3 nM | 1.1 | 40.4 nM | 3.2 | 1700 nM
Cc1cc(/C=C/C#N)cc(C)c1-c1nccc2c(N)nc(Nc3ccc(C#N)cc3)nc12 [Compound 1, (E)-4-((4-Amino-8-(4-(2-cyanovinyl)-2,6-dimethylphenyl)pyrido[3,4-d]pyrimidin-2-yl)amino)benzonitrile] | 2.1 nM | 1.4 nM | 2.3 nM | 1.7 | 5.5 nM | 4.0 | 
Cc1cc(/C=C/C#N)cc(C)c1-c1ccnc2c(N)nc(Nc3ccc(C#N)cc3)nc12 [Compound 3, (E)-4-((4-amino-8-(4-(2-cyanovinyl)-2,6-dimethylphenyl)pyrido[3,2-d]pyrimidin-2-yl)amino)benzonitrile] | 4.6 nM |  |  |  |  |  | 
